Measured values published in ChEMBL document CHEMBL4261542, “Recent advances in combretastatin based derivatives and prodrugs as antimitotic agents” (Medchemcomm, 2017).

Legend:
Tubulin = assay: Inhibition of tubulin polymerization (unknown origin); format: protein-complex assay, Homo sapiens
A549 = assay: Antiproliferative activity against human A549 cells; format: functional, cell-based
MCF7 = assay: Antiproliferative activity against human MCF7 cells; format: functional, cell-based
DU-145 = assay: Antiproliferative activity against human DU145 cells after 48 hrs by MTT assay; format: functional, cell-based; details: DU-145, 48 h
[1] = Inhibition of [3H]colchicine binding to bovine brain tubulin after 20 mins by spectrophotometric analysis; parameters: species or system Bos taurus
SGC-7901 = assay: Antiproliferative activity against human SGC7901 cells after 72 hrs by MTT assay; format: functional, cell-based; details: SGC-7901, 72 h
HT-1080 = assay: Antiproliferative activity against human HT1080 cells after 72 hrs by MTT assay; format: functional, cell-based; details: HT-1080, 72 h
KB = assay: Antiproliferative activity against human KB cells after 72 hrs by MTT assay; format: functional, cell-based
L929 = assay: Cytotoxicity against mouse L929 cells after 72 hrs by MTT assay; format: cell-based; details: L929, 72 h

Compound `COc1ccc(N2C(=O)CSC2c2cc(OC)c(OC)c(OC)c2)cc1` (stereo not given) has an IC50 (Tubulin) of 2120 nM.
For `COc1cc(/C=C(\c2cc(OC)c(OC)c(OC)c2)c2nc3cc(OC)c(OC)cc3o2)ccc1O`, the IC50 (A549) was under 100 nM and the IC50 (MCF7) was under 100 nM.
For `COc1cc(/C=C(\c2cc(OC)c(OC)c(OC)c2)c2nnc(-c3cc(OC)c(OC)c(OC)c3)o2)ccc1O`, the IC50 (DU-145) was 100 nM.
With `CCOc1ccc(-c2cc(C)nn2-c2cc(OC)c(OC)c(OC)c2)cc1Cl` the IC50 (Tubulin) was 1700 nM.
Work on `CCOc1ccc(-c2nccn2-c2cc(OC)c(OC)c(OC)c2)cc1Cl` yielded an IC50 [1] of 870 nM.
Work on `COc1cc(-n2c(C)ccc2-c2cc(OC)c(OC)c(OC)c2)ccc1N` yielded an IC50 (SGC-7901) of 390 nM, an IC50 (HT-1080) of 70 nM and an IC50 (KB) of 45 nM. For the same compound, the IC50 (L929) was 30100 nM.
